Values quoted from earlier work, collected in patent US20250241957A1, “INTRA-ERYTHROCYTE DEXAMETHASONE FOR TREATMENT OF ATAXIA-[…]” (priority 2024, published 2025).

Tested on: participants with A-T
Conditions: betamethasone used for two years

- Adrenal suppression: documented in all participants
Compound: C[C@H]1C[C@H]2[C@@H]3CCC4=CC(=O)C=C[C@]4(C)[C@@]3(F)[C@@H](O)C[C@]2(C)[C@@]1(O)C(=O)CO [betamethasone]
